System: Lipoxin A4 production in human mononuclear cells
Test: Lipoxin A4 production in stimulated human mononuclear blood cells in vitro (LC-MS of supernatants)
Format: cell-based
Conditions: coriander oil 0.25 mg/ml, zinc gluconate 0.005 mg/ml; 30 min pre-incubation, then 2 hours stimulation with phorbol myristate 0.05 μM + calcium ionophore 1 μM + DHA/EPA 1 μg/mL each; triplicates
Method: Mononuclear blood cells are cultured under 5% CO2 and at 37° C. in a serum-free medium for macrophages (SFM Macrophage; Invitrogen 12065074) for 24 hours. After this step, the medium is replaced with the same fresh test medium also containing the active agents at the various doses for 30 minutes in the presence of the various products to be evaluated (coriander oil 0.25 mg/ml, zinc gluconate ([…]. The inflammatory response was then triggered in the presence of phorbol myristate (0.05 μM) and calcium ionophore (1 μM) and a lipid substrate mixture composed of docosahexaenoic acid (DHA—1 μg/mL) and eicosapentaenoic acid (EPA—1 μg/mL).
The supernatants were then collected after 2 hours of stimulation and frozen at −80° C. before preparation for analysis by mass spectrometry.
Experimental triplicates (three wells) were prepared per experimental condition. Into each culture plate was placed a control corresponding to cells stimulated with the PMA/A23187 mixture and/or with addition of the equimolar mixture of fatty acids.
The thawed supernatants were concentrated by solid-phase extraction (SPE) and taken up in methanol before spectrometric analysis. The analytical method used consists in separating the various analytes by high-pressure liquid chromatography as a function of their retention time and in quantifying them by mass spectrometry. […]

**Q.** How did the “Level of lipoxin A4 production (% modulation relative to the control)” value turn out when Zinc gluconate was run?
**A.** The value was −5%.

— patent US20160095802A1, “COMBINATION OF PETROSELINIC ACID AND ZINC FOR ORAL ADMINISTRATION FOR HAIR AGING CONTROL” (NUTRICOS TECHNOLOGIES, priority 2013, published 2016)
